The assay deals with human KAT II (hKAT II) enzyme (Homo sapiens, UniProt Q8N5Z0). Nature of the assay: KAT II Inhibition Spectra Assay. Format: biochemical. The procedure: Formation of kynurenic acid (KYNA) is indirectly assessed by a decrease in light absorbance at 370 nm (OD370) as the L-kynurenine (KYN) substrate is converted by the human KAT II (hKAT II) enzyme into KYNA. An inhibitor would therefore inhibit the decrease in OD370.
The protocol was performed by placing the following reagents into a Costar 384 well black plate (30 μL total assay volume/well): • 10 μL of 3× concentrated compound; • 10 μL of 3× concentrated substrate mix (BGG (Sigma G-5009); 3 mM L-Kynurenine in 150 mM Tris Acetate (Sigma K3750); 3 mM α-ketoglutaric acid in 150 mM Tris Acetate (Sigma K2010); and 210 μM pyridoxal 5-phosphate (PLP) in 150 mM Tris Acetate (Sigma 9255)); and • 10 μL of 3× concentrated enzyme (15 nM enzyme in 150 mM Tris Acetate with 0.3% bovine serum).
Plates were sealed and incubated at 37° C. for 15-20 h before reading OD370 on a SpectraMax Plus plate reader. IC50s were generated by comparing the efficacy of compounds across a concentration range to inhibit a reduction in the OD370 value relative to assay wells with DMSO added in place of concentrated compound.

Setting [1] is: Table 6, hKAT II, decrease in OD370, 37° C., 15-20 h, read-out: KATII IC50.
Where [2] appears, read: Table 5, hKAT II, decrease in OD370, 37° C., 15-20 h, read-out: KATII IC50.

Where a name gives a salt, the structure may show the parent alone. Read-outs that look alike come from different tables or passages of the source.

Sequence of human KAT II (hKAT II) enzyme (Q8N5Z0 30-425): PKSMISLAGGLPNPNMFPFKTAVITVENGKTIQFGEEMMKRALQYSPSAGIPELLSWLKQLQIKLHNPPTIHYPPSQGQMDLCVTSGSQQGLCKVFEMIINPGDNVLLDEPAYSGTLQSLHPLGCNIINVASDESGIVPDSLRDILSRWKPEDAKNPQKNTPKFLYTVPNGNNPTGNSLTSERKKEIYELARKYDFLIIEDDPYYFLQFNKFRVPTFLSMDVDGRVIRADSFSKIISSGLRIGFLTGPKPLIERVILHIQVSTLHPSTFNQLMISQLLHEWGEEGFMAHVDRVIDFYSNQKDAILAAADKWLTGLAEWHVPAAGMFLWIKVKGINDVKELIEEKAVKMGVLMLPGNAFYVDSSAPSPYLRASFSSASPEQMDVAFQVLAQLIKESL

In the case of `N[C@H]1Cc2cc(-c3cccc(C(F)(F)F)c3)ccc2N(O)C1=O` [Example 144, (3S)-3-amino-1-hydroxy-6-[3-(trifluoromethyl)phenyl]-3,4-dihydroquinolin-2(1H)-one, trifluoroacetate salt], the IC50 under setting [1] was found to be 145 nM. The same measure, in the same setting: as for `CN(Cc1ccc2c(c1)C[C@H](N)C(=O)N2O)c1ccccc1` [Example 76, (3S)-3-amino-1-hydroxy-6-{[methyl(phenyl)amino]methyl}-3,4-dihydroquinolin-2(1H)-one], the figure is 34.6 nM. With `NC1Cc2ccc(-c3cccc(Cl)c3)cc2N(O)C1=O` (stereo not drawn) [Example 52, 3-amino-7-(3-chlorophenyl)-1-hydroxy-3,4-dihydroquinolin-2(1H)-one, trifluoroacetate salt], the IC50 under setting [2] is 139 nM.

With `COc1cccc(-c2ccc3c(c2)N(O)C(=O)C(N)C3)c1` (stereo not drawn) [Example 13, 3-amino-1-hydroxy-7-(3-methoxyphenyl)-3,4-dihydroquinolin-2(1H)-one, hydrochloride salt], the IC50 under setting [2] worked out at 57.3 nM. Consider `NC1Cc2ccc(-c3cc(Cl)ccc3Cl)cc2N(O)C1=O` (stereo not drawn) [Example 43, 3-amino-7-(2,5-dichlorophenyl)-1-hydroxy-3,4-dihydroquinolin-2(1H)-one, trifluoroacetate salt], for which the IC50 under setting [2] was 133 nM. For `Cc1ccccc1-c1ccc2c(c1)C[C@H](N)C(=O)N2O` [Example 135, (3S)-3-amino-1-hydroxy-6-(2-methylphenyl)-3,4-dihydroquinolin-2(1H)-one, trifluoroacetate salt], the IC50 under setting [1] was 116 nM. The same measure, in the same setting: as for `N[C@H]1Cc2cc(-c3ccccc3F)ccc2N(O)C1=O` [Example 136, (3S)-3-amino-6-(2-fluorophenyl)-1-hydroxy-3,4-dihydroquinolin-2(1H)-one, trifluoroacetate salt], the figure is 129 nM; as for `N[C@H]1Cc2cc(-c3cccc(OC(F)(F)F)c3)ccc2N(O)C1=O` [Example 131, (3S)-3-amino-1-hydroxy-6-[3-(trifluoromethoxy)phenyl]-3,4-dihydroquinolin-2(1H)-one, trifluoroacetate salt], 246 nM; as for `NC1Cc2cc(Oc3cccnc3)ccc2N(O)C1=O` (stereo not drawn) [Example 95], 35.9 nM. Still for that read-out and setting: for `N[C@H]1Cc2cc(C3CCOCC3)ccc2N(O)C1=O` [Example 112] the value was 49.3 nM; for `Cc1ncccc1Oc1ccc2c(c1)CC(N)C(=O)N2O` (stereo not drawn) [Example 87], 40.9 nM. Compound `CN(C)C(=O)ON1C(=O)[C@@H](N)Cc2ccccc21` [Example 73, (3S)-3-amino-1-[(dimethylcarbamoyl)oxy]-3,4-dihydroquinolin-2(1H)-one, hydrochloride salt] displayed an IC50 of 1090 nM. For the compound `COc1cccc2c1C[C@H](N)C(=O)N2O` [Example 12, (3S)-3-amino-1-hydroxy-5-methoxy-3,4-dihydroquinolin-2(1H)-one, hydrochloride salt], the IC50 under setting [2] was found to be 379 nM. On to `NC1Cc2ccc(-c3ccc(OC(F)(F)F)cc3)cc2N(O)C1=O` (stereo not drawn) [Example 61, 3-amino-1-hydroxy-7-[4-(trifluoromethoxy)phenyl]-3,4-dihydroquinolin-2(1H)-one, trifluoroacetate salt], for which the IC50 under setting [2] was 162 nM. `N[C@H]1Cc2cc(-c3ccc(C(F)(F)F)cc3)cc(C(F)(F)F)c2N(O)C1=O` [Example 28]: under setting [2], the half-inhibitory concentration (IC50) worked out at 1330 nM. For `N[C@H]1Cc2cc(Oc3ccc(F)cc3Cl)ccc2N(O)C1=O` [Example 161, (3S)-3-amino-6-(2-chloro-4-fluorophenoxy)-1-hydroxy-3,4-dihydroquinolin-2(1H)-one, trifluoroacetate salt], the IC50 under setting [1] worked out at 54 nM. Take `NC1Cc2ncccc2N(O)C1=O` (stereo not drawn) [Example 9, 3-amino-1-hydroxy-3,4-dihydro-1,5-naphthyridin-2(1H)-one, dihydrochloride salt]: the IC50 under setting [2] worked out at 2230 nM.

On to `N[C@H]1Cc2cccc(C(F)(F)F)c2N(O)C1=O` [Example 20], for which the IC50 under setting [2] was 127 nM. For `NC1Cc2ccc(-c3ccc(F)c(F)c3)cc2N(O)C1=O` (stereo not drawn) [Example 44, 3-amino-7-(3,4-difluorophenyl)-1-hydroxy-3,4-dihydroquinolin-2(1H)-one, trifluoroacetate salt], the IC50 under setting [2] was 118 nM. Regarding `N[C@H]1Cc2c(ccc(C3CC3)c2F)N(O)C1=O` [Example 116], under setting [1], the IC50 amounted to 51.9 nM.

`NC1Cc2cc(Oc3ccc(C(F)(F)F)cc3)ccc2N(O)C1=O` (stereo not drawn) [Example 102]: under setting [1], the IC50 is 68.6 nM. Still for that read-out and setting: for `NC1Cc2cc(Oc3cccc(C(F)(F)F)c3)ccc2N(O)C1=O` (stereo not drawn) [Example 93] the value was 35.6 nM; for `N[C@H]1Cc2cc(Oc3cncc(Cl)c3)ccc2N(O)C1=O` [Example 170, (3S)-3-amino-6-[(5-chloropyridin-3-yl)oxy]-1-hydroxy-3,4-dihydroquinolin-2(1H)-one, ammonium salt], 28.9 nM.

Consider `NC1Cc2ccc(-c3cccc(OC(F)(F)F)c3)cc2N(O)C1=O` (stereo not drawn) [Example 38, 3-amino-1-hydroxy-7-[3-(trifluoromethoxy)phenyl]-3,4-dihydroquinolin-2(1H)-one, trifluoroacetate salt], for which the IC50 under setting [2] was found to be 133 nM. In the case of `COc1cc2c(cc1Cc1cccc(C(F)(F)F)c1)C[C@H](N)C(=O)N2O` [Example 83], the IC50 under setting [1] came to 39.7 nM. On the same count and under the same terms, for `NC1Cc2cc(Oc3ccncc3)ccc2N(O)C1=O` (stereo not drawn) [Example 100] the value was 103 nM; for `Cc1ccc(Oc2ccc3c(c2)CC(N)C(=O)N3O)cc1` (stereo not drawn) [Example 98], 31.9 nM. In the case of `CCc1ccc2c(c1)N(O)C(=O)C(N)C2` (stereo not drawn) [Example 26], under setting [2], the IC50 was 88 nM. In the case of `N[C@H]1Cc2cc(Oc3cc(F)ccc3F)ccc2N(O)C1=O` [Example 157, (3S)-3-amino-6-(2,5-difluorophenoxy)-1-hydroxy-3,4-dihydroquinolin-2(1H)-one, trifluoroacetate salt], under setting [1], the IC50 came out at 68.5 nM. Still for that read-out and setting: as for `COc1cccc(Oc2ccc3c(c2)C[C@H](N)C(=O)N3O)c1` [Example 78], the figure is 17.3 nM; as for `N[C@H]1Cc2c(ccc(Oc3ccccc3)c2F)N(O)C1=O` [Example 111], 45.2 nM; as for `N[C@H]1Cc2cc(Oc3cccc(C(F)(F)F)c3F)ccc2N(O)C1=O` [Example 160, (3S)-3-amino-6-[2-fluoro-3-(trifluoromethyl)phenoxy]-1-hydroxy-3,4-dihydroquinolin-2(1H)-one, trifluoroacetate salt], 101 nM.

As for `N[C@H]1Cc2cc(OC(F)(F)F)ccc2N(O)C1=O` [Example 32], the IC50 under setting [2] was determined as 35.9 nM.

Consider `NC1Cc2ccc(-c3cc(Cl)ccc3F)cc2N(O)C1=O` (stereo not drawn) [Example 54, 3-amino-7-(5-chloro-2-fluorophenyl)-1-hydroxy-3,4-dihydroquinolin-2(1H)-one, trifluoroacetate salt], for which the IC50 under setting [2] worked out at 137 nM.

On to `NC1Cc2ccc(C3CC3)cc2N(O)C1=O` (stereo not drawn) [Example 30], for which the IC50 under setting [2] was determined as 23.7 nM.

As to `N[C@H]1Cc2cccc(C(F)F)c2N(O)C1=O` [Example 119], the IC50 under setting [1] amounted to 41.1 nM. On the same count and under the same terms, for `N[C@H]1Cc2c(F)ccc(Cl)c2N(O)C1=O` [Example 109] the value was 288 nM; for `N[C@H]1Cc2cccc(OCC(F)(F)F)c2N(O)C1=O` [Example 96], 49.6 nM; for `NC1Cc2cc(Oc3ccc(OC(F)(F)F)cc3)ccc2N(O)C1=O` (stereo not drawn) [Example 103], 77.5 nM. Turning to `N[C@H]1Cc2cc(Oc3ccc(Cl)c(Cl)c3)ccc2N(O)C1=O` [Example 163, (3S)-3-amino-6-(3,4-dichlorophenoxy)-1-hydroxy-3,4-dihydroquinolin-2(1H)-one, trifluoroacetate salt], the IC50 under setting [1] was 60 nM. `CCc1ccccc1-c1ccc2c(c1)C[C@H](N)C(=O)N2O` [Example 149, (3S)-3-amino-6-(2-ethylphenyl)-1-hydroxy-3,4-dihydroquinolin-2(1H)-one, trifluoroacetate salt]: the IC50 under setting [1] came to 118 nM.

For `N[C@H]1Cc2cc(Oc3ccc(Cl)c(F)c3)ccc2N(O)C1=O` [Example 167, (3S)-3-amino-6-(4-chloro-3-fluorophenoxy)-1-hydroxy-3,4-dihydroquinolin-2(1H)-one, trifluoroacetate salt], the IC50 under setting [1] was 105 nM. For `NC1Cc2cc(Oc3ccccn3)ccc2N(O)C1=O` (stereo not drawn) [Example 92], the IC50 under setting [1] is 51.3 nM. Consider `Cc1cccc(-c2ccc3c(c2)N(O)C(=O)C(N)C3)c1C` (stereo not drawn) [Example 47, 3-amino-7-(2,3-dimethylphenyl)-1-hydroxy-3,4-dihydroquinolin-2(1H)-one, trifluoroacetate salt], for which the IC50 under setting [2] is 118 nM. On to `N[C@H]1Cc2cc(-c3ccccc3Cl)ccc2N(O)C1=O` [Example 154, (3S)-3-amino-6-(2-chlorophenyl)-1-hydroxy-3,4-dihydroquinolin-2(1H)-one, trifluoroacetate salt], for which the half-maximal inhibitory concentration (IC50) under setting [1] is 96.5 nM. Still for that read-out and setting: for `COc1cccc2c1N(O)C(=O)C(N)C2` (stereo not drawn) [Example 118] the value was 1270 nM; for `NC1Cc2cc(Oc3ccc(F)cc3)ccc2N(O)C1=O` (stereo not drawn) [Example 108], 70.1 nM. On to `CN(C)c1ccc(-c2ccc3c(c2)N(O)C(=O)C(N)C3)cn1` (stereo not drawn) [Example 48, 3-amino-7-[6-(dimethylamino)pyridin-3-yl]-1-hydroxy-3,4-dihydroquinolin-2(1H)-one, trifluoroacetate salt], for which, under setting [2], the IC50 is 523 nM.

Values taken from US8183238B2, “Bicyclic and tricyclic compounds as KAT II inhibitors” (priority 2009, dated 2012).
